This assay has as its target T1, G1 APOL1 (Homo sapiens, UniProt O14791, I384M/S342G).
T1 construct: expressed in transfected cells
T1 sequence (O14791 28-398 S342G/I384M): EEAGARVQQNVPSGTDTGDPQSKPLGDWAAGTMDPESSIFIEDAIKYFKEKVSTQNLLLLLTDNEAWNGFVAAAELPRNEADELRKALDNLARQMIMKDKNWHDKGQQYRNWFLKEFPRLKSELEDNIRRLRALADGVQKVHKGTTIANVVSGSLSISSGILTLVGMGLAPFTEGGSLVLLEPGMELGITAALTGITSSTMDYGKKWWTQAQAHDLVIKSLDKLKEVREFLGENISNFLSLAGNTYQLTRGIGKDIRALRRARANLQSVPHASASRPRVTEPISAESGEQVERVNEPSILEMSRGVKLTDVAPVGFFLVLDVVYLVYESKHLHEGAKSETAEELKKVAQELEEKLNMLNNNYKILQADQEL
As to the kind of experiment: Acute APOL1 Thallium Assay with inducible stable clones of HEK 293 cells. The conditions noted are these: read-out: Thallium Assay (IC50). Format: cell-based. An excerpt:
Acute APOL1 Thallium Assay with Inducible Stable Clones of HEK 293 Cells
Apolipoprotein L1 (APOL1) proteins form potassium-permeable cation pores in the plasma membrane. APOL1 risk variants (G1 and G2) induce greater potassium flux than G0 in HEK293 cells. This assay exploits the permeability of thallium (Tl+) through ligand-gated potassium channels. The dye produces a bright fluorescent signal upon binding to Tl+ conducted through potassium channels. The intensity of the Tl+ signal is proportional to the number of potassium channels in the open state. Therefore, it provides a functional indication of the potassium channel activities. During the initial dye-loading step, the Tl+ indicator dye as an acetoxymethyl (AM) ester enters the cells through passive diffusion. Cytoplasm esterases cleave the AM ester and relieve its active thallium-sensitive form. The cells are then stimulated with Tl+. The increase of fluorescence in the assay represents the influx of Tl+ into the cell specifically through the potassium channel (i.e. through APOL1 pores), providing a functional measurement of potassium channel/pore activity. The Thallium assay is conducted with cells expressing G1 APOL1.
APOL1 Cell Line (HEK T-Rex Stable Inducible Cell Line) • HEK T-Rex System • Tetracycline (Tet) inducible mammalian expression system. • Stably express the Tet repressor to regulate transcription. • Expression under the full-length CMV promoter. • APOL1 stable inducible cell line Clone used: G1 DC3.25
Tissue Culture Media • Cell Culture Medium • DMEM+10% FBS+P/S+5 μg/mL blasticidin+1 μg/mL puromycin. • 500 mL DMEM+55 mL FBS+5 mL P/S+280 μL blasticidin S HCl (10 mg/mL)+56 μL puromycin (10 mg/mL). • Cell Assay Medium • DMEM with 2% FBS+pen strep.
Instruments and Equipment • Nuaire cell culture hood, Cat. No. 540-600 • 37° C./5% CO2 incubator link to robotic arm, Liconic: STX110 • Molecular Devices FLIPR^Tetra High throughput cellular screening system, Cat. No. FT0324, Molecular Devices • ThermoFisher MultiDrop 384, Cat. No. 5840300 • Biotek Microfill, Cat. No. ASF1000A-4145 • BioRad TC10 cell counter, Cat. No. 145-0010 Assay Procedures
Cells Scaled Up from Frozen Vials • APOL1 G1 3.25 (HEK293 T-Rex) frozen vials: 5 million cells per vial • Step 1, Day 1: Defrost frozen vial into T-225. • Step 2, Day 5: (when 85% confluent): Split one T-225 at 3×10^6 cells per flask. • Step 3, Day 8: Splits cells to set up for the assay plates as described below.
T-Rex APOL1 HEK cells are split twice per week to keep the confluence state below 85% of the culture flask surface area. Cells can be kept until passage 25. • Cell Culture Medium • DMEM high glucose+10% FBS, +P/S, +5 μg/mL blasticidin, +1 μg/mL puromycin. • 500 mL DMEM, +55 mL FBS, +5 mL P/S, +280 μL blasicidin 10 mg/mL, +56 μL Puromycin 10 mg/mL. • Assay Media • Opti-MEM reduced serum medium from Invitrogen.
Preparation of Cell Assay Plates • Culture medium is removed from the x cm^2 T-flask by aspiration. • The cell monolayer is rinsed with PBS 1× at room temperature. PBS is removed by aspiration. • Cells are trypsinized using Trypsin. • The flasks are incubated at room temperature for 2-3 minutes. • Complete DMEM medium is then added. Cell suspension is then transferred to a 50 mL Falcon polypropylene tube. • Cells are then counted using a Biorad TC10 cell counter and the required amount of cells are centrifuged at 1200 RPM for 5 minutes. Required amount is 1.3×10^6 cells/mL APOL1 T-Rex HEK cells. • The pellet is suspended in the assay medium. • Using the MultiDrop, add 20 μL to each well (corresponds to 26000 cells total per well) of a 384-well black, transparent, flat bottom Poly-D coated plate. • Tetracycline as prepared in the following section is added to the cells before plating to induce APOL1 expression. • Plates are left at room temperature for 20 to 30 minutes before incubation at 37° C. and 5% CO2. […]

Where [1] appears, read: HEK 293 T-Rex cells expressing G1 APOL1.

Where two headings read alike, the source gives them in different places.

As for `Cc1ccn(CCNC(=O)[C@H]2C[C@@H](c3c(-c4ccc(F)cc4)[nH]c4c(F)cc(F)cc43)C2)n1` [Compound 263], the IC50 under setting [1] was 250 to 1000 nM.
Same read-out and setting: in the case of `O=C(NCCO)C1CC(c2c(-c3ccc(F)cc3)[nH]c3c(F)cc(C(F)(F)F)cc23)C1` (stereo not drawn) [Compound 279] it was 250 to 1000 nM; in that of `O=C(NCC1COC1)[C@H]1C[C@@H](c2c(-c3ccc(F)cc3)[nH]c3c(F)cc(F)cc32)C1` [Compound 248], more than 1000 nM.
Still for that read-out and setting: in the case of `O=C(N[C@@H]1CC[C@H](O)C1)[C@H]1C[C@H](c2c(-c3ccc(F)cc3)[nH]c3c(F)cc(F)cc32)C1` [Compound 180] it was more than 1000 nM.
Turning to `CON(C)C(=O)CNC[C@H]1C[C@H](c2c(-c3ccc(F)cc3)[nH]c3c(F)cc(F)cc32)C1` [Compound 450], the concentration for half-maximal inhibition (IC50) (Table 24, Compounds 287 to 465) was in the range of 250 to 1000 nM.
For `O=C([C@H]1C[C@H](c2c(-c3ccc(F)cc3)[nH]c3c(F)cc(F)cc32)C1)N1CCOC(CO)C1` (stereo partly drawn) [Compound 152], under setting [1], the half-inhibitory concentration (IC50) is more than 1000 nM.
Regarding `CC1(NC(=O)C2CC(Cc3c(-c4ccc(F)cc4)[nH]c4c(F)cc(F)cc34)C2)CCOC1` (mixture of isomers) [Compound 334], the IC50 (Table 24, Compounds 287 to 465) was more than 1000 nM.
Still for that read-out and setting: the figure for `CC(C)NC(=O)CNC[C@H]1C[C@H](c2c(-c3ccc(F)cc3)[nH]c3c(F)cc(F)cc32)C1` [Compound 451] is more than 1000 nM; for `CC(C)(NCC1CC(c2c(-c3ccc(F)cc3)[nH]c3c(F)cc(F)cc23)C1)C(=O)NCC(F)(F)F` (stereo not drawn) [Compound 442] it is more than 1000 nM; for `CC(C)(O)CNC(=O)C1CC(Cc2c(-c3ccc(F)cc3)[nH]c3c(F)cc(F)cc23)C1` (stereo not drawn) [Compound 318] it is more than 1000 nM.
As for `O=C([C@H]1C[C@@H](c2c(-c3ccc(F)cc3)[nH]c3c(F)cc(F)cc32)C1)N1C[C@@H](O)[C@H](O)C1` [Compound 274], the 50% inhibitory concentration (IC50) under setting [1] was more than 1000 nM.
`CS(=O)(=O)CCNC(=O)C1CC(Cc2c(-c3ccc(F)cc3)[nH]c3c(F)cc(F)cc23)C1` (stereo not drawn) [Compound 316]: the half-maximal inhibitory concentration (IC50) (Table 24, Compounds 287 to 465) is more than 1000 nM.
Take `O=C(NCC(F)F)[C@H]1C[C@@H](c2c(-c3ccc(F)cc3)[nH]c3c(F)cc(F)cc32)C1` [Compound 238]: under setting [1], the IC50 fell in the range of 250 to 1000 nM.
With `CNC(=O)CNC[C@H]1C[C@H](c2c(-c3ccc(F)cc3)[nH]c3c(F)cc(F)cc32)C1` [Compound 446], for the setting “Table 24, Compounds 287 to 465”, the IC50 is less than 250 nM.
On the same count and under the same terms, the figure for `CC[C@H](CO)NC(=O)NC[C@H]1C[C@H](c2c(-c3ccc(F)cc3)[nH]c3c(F)cc(F)cc32)C1` [Compound 418] is more than 1000 nM; for `O=C(NCC1CCOCC1)C1CC(Cc2c(-c3ccc(F)cc3)[nH]c3c(F)cc(F)cc23)C1` (stereo not drawn) [Compound 326] it is more than 1000 nM; for `Cc1ccc(CNC(=O)O[C@H]2C[C@H](c3c(-c4ccc(F)cc4)[nH]c4c(F)cc(F)cc43)C2)o1` [Compound 375] it is more than 1000 nM.
On the same count and under the same terms, the figure for `CC(C)C(CO)NC(=O)O[C@H]1C[C@H](c2c(-c3ccc(F)cc3)[nH]c3c(F)cc(F)cc32)C1` (stereo partly drawn) [Compound 380] is more than 1000 nM; for `CC1(C)CC(C)(NC(=O)NC[C@H]2C[C@H](c3c(-c4ccc(F)cc4)[nH]c4c(F)cc(F)cc43)C2)C(=O)O1` (mixture of isomers) [Compound 392] it is more than 1000 nM.
The same measure, in the same setting: the figure for `NC(=O)C(CO)NCC1CC(c2c(-c3ccc(F)cc3)[nH]c3c(F)cc(F)cc23)C1` (stereo not drawn) [Compound 437] is 250 to 1000 nM.
Take `O=C(NC[C@H]1C[C@H](c2c(-c3ccc(F)cc3)[nH]c3c(F)cc(F)cc32)C1)N1CCC[C@@H]1CO` [Compound 405]: for the setting “Table 24, Compounds 287 to 465”, the 50% inhibitory concentration (IC50) was more than 1000 nM.
The same measure, in the same setting: the figure for `O=C(NCCO)O[C@H]1C[C@H](c2c(-c3ccc(F)cc3)[nH]c3c(F)cc(F)cc32)C1` [Compound 350] is 250 to 1000 nM; for `COC1(CNC(=O)C2CC(Cc3c(-c4ccc(F)cc4)[nH]c4c(F)cc(F)cc34)C2)CCOC1` (stereo not drawn) [Compound 343] it is more than 1000 nM.
Same read-out and setting: the figure for `O=C(CC1CC(c2c(-c3ccc(F)cc3)[nH]c3c(F)cc(F)cc23)C1)N[C@@H]1CCNC1=O` (stereo partly drawn) [Compound 457] is more than 1000 nM.
For `Cn1cnc(CNC(=O)C2CC(Cc3c(-c4ccc(F)cc4)[nH]c4c(F)cc(F)cc34)C2)c1` (stereo not drawn) [Compound 314], for the setting “Table 24, Compounds 287 to 465”, the IC50 is more than 1000 nM.
The same measure, in the same setting: the figure for `C[C@@H](CO)NC(=O)NC[C@H]1C[C@H](c2c(-c3ccc(F)cc3)[nH]c3c(F)cc(F)cc32)C1` [Compound 414] is more than 1000 nM.
For `C[C@@H](CO)NC(=O)[C@H]1C[C@@H](c2c(-c3ccc(F)cc3)[nH]c3c(F)cc(F)cc32)C1` [Compound 271], under setting [1], the IC50 is 250 to 1000 nM.
`O=C(N[C@@H]1CCNC1=O)O[C@H]1C[C@H](c2c(-c3ccc(F)cc3)[nH]c3c(F)cc(F)cc32)C1` [Compound 359]: the IC50 (Table 24, Compounds 287 to 465) was in the range of 250 to 1000 nM.
Regarding `C[C@H](CO)NC(=O)[C@H]1C[C@@H](c2c(-c3ccc(F)cc3)[nH]c3c(F)cc(F)cc32)C1` [Compound 272], the IC50 under setting [1] is more than 1000 nM.
The same measure, in the same setting: the figure for `CC(C)CC(NC(=O)[C@H]1C[C@@H](c2c(-c3ccc(F)cc3)[nH]c3c(F)cc(F)cc32)C1)C(N)=O` (stereo partly drawn) [Compound 255] is more than 1000 nM.
In the case of `C[C@H](NCC1CC(c2c(-c3ccc(F)cc3)[nH]c3c(F)cc(F)cc23)C1)C(=O)N(C)C` (stereo partly drawn) [Compound 434], the half-inhibitory concentration (IC50) (Table 24, Compounds 287 to 465) lay in the range of 250 to 1000 nM.
Same read-out and setting: the figure for `CN(CC1CC(c2c(-c3ccc(F)cc3)[nH]c3c(F)cc(F)cc23)C1)C(=O)NCc1cn(C)cn1` (stereo not drawn) [Compound 427, 1-((3-(5,7-difluoro-2-(4-fluorophenyl)-1H-indol-3-yl)cyclobutyl)methyl)-1-methyl-3-((1-methyl-1H-imidazol-4-yl)methyl)urea] is more than 1000 nM.
Take `O=C1NCC[C@H]1NC(=O)[C@H]1C[C@@H](c2c(-c3ccc(F)cc3)[nH]c3c(F)cc(F)cc32)C1` [Compound 236]: under setting [1], the half-inhibitory concentration (IC50) was more than 1000 nM.
In the case of `O=C(NC[C@H]1C[C@H](c2c(-c3ccc(F)cc3)[nH]c3c(F)cc(F)cc32)C1)NC1CC(O)C1` (stereo partly drawn) [Compound 420], the IC50 (Table 24, Compounds 287 to 465) is more than 1000 nM.
Take `C[C@H](O)[C@H](CO)NC(=O)[C@H]1C[C@@H](c2c(-c3ccc(F)cc3)[nH]c3c(F)cc(F)cc32)C1` [Compound 245]: the IC50 under setting [1] is more than 1000 nM.
Take `Cc1cnc(CNC(=O)O[C@H]2C[C@H](c3c(-c4ccc(F)cc4)[nH]c4c(F)cc(F)cc43)C2)o1` [Compound 374]: the IC50 (Table 24, Compounds 287 to 465) was more than 1000 nM.
Same read-out and setting: in the case of `O=C(NC[C@H]1C[C@H](c2c(-c3ccc(F)cc3)[nH]c3c(F)cc(F)cc32)C1)N[C@H]1C[C@H](O)C1` [Compound 411] it was more than 1000 nM; in that of `CC1CC(NC(=O)NC[C@H]2C[C@H](c3c(-c4ccc(F)cc4)[nH]c4c(F)cc(F)cc43)C2)C(=O)O1` (stereo partly drawn) [Compound 395], more than 1000 nM.
As to `CC1(C(=O)N[C@H]2CCNC2=O)CC(c2c(-c3ccc(F)cc3)[nH]c3c(F)cc(F)cc23)C1` (mixture of isomers) [Compound 284], the concentration for half-maximal inhibition (IC50) under setting [1] lay within 250 to 1000 nM.

Broadly, the IC50 is the concentration needed to halve the response being measured.

Source of the values: patent US12116343B2, “Inhibitors of APOL1 and methods of using same” (Vertex Pharmaceuticals Incorporated, priority 2020, dated 2024).
